The subject of one data set is Pseudomonas aeruginosa. The data set is described as follows: Agar plate disc-diffusion, inhibition zone. Format: cell-based. The following applies: 37° C., 48 h. As for the experimental part:
(§1) The agar plate disc-diffusion method was applied. Sterilized filter papers (6 mm in diameter) were wetted with 10 μL of a solution of 3-(4-nitrophenyl)-5-((2-isopropyl-5-methylphenoxy)methyl)-1,2,4-oxadiazole (3) to be tested, containing 10 mg/mL in DMSO, and the discs were allowed to air dry. The discs were then placed onto the surface of agar plates (nutrient agar for bacteria and Sabouraud's dextrose agar for fungi) seeded with the test organism. Each plate contained 15 mL of the agar medium, previously seeded with 0.2 mL of the broth culture of each organism pregrown for 18 hours. The plates were incubated at 37° C. for 48 h, and 72 h for fungi. The inhibition zones were measured in mm. Discs impregnated with DMSO were used as a control, and its inhibition zone was subtracted from the tested compound actual inhibition zone.

The next data set has as its system Escherichia coli. Description: Agar plate disc-diffusion, inhibition zone. The class given is cell-based. To be noted: 37° C., 48 h. As for the experimental part:
as §1

In the next data set the test system is Staphylococcus aureus. Description: Agar plate disc-diffusion, inhibition zone. Format: cell-based. To be noted: 37° C., 48 h. As to the method:
as §1

Another data set has as its system Bacillus cereus. The data set is described as follows: Agar plate disc-diffusion, inhibition zone. Format: cell-based. To be noted: 37° C., 48 h. As for the experimental part:
as §1

The next data set concerns Aspergillus flavus. Description: Agar plate disc-diffusion, inhibition zone (antifungal). Format: cell-based. The following applies: 72 h for fungi. As for the experimental part:
as §1

The subject of data set [1] is Chrysosporium keratinophilum. The data set is described as above. Format: cell-based. To be noted: 72 h for fungi. As to the method:
as §1

The subject of a further data set is different microbes. The data set is described as follows: Antimicrobial screening by agar plate disc-diffusion, overall statement. Format: cell-based. To be noted: against different microbes (bacteria and fungi of Tables 1 and 2). As to the method: as §1
Data set [2] has as its system human osteosarcoma cells (MG-63). Description: Cytotoxicity by SRB assay. Format: cell-based. The following applies: MG-63 cells, 0.01 μM to 100 μM for 72 h. An excerpt:
(§2) The anticancer activity of the described synthesized compounds against highly aggressive androgen-independent metastatic human prostate cancer cells (PC3) and osteosarcoma (MG-63) cells. The human prostate cancer cells (PC3) and human osteosarcoma cells (MG-63) were obtained from Nawah Scientific Inc. (Mokatam, Cairo, Egypt) and cultured in DMEM (Dulbecco's modified eagle's medium), Gibco, USA, supplemented with fetal bovine serum (FBS) at a concentration of 10% and 100 U/mL of penicillin and streptomycin (PS). The Cells were incubated at 37° C. in a humidified environment that contained 5% CO2.
(§3) Cells were seeded in 96-well plates as aliquots of 100 μL cell suspension and incubated in a complete media for 24 h. afterward, cells were treated with 3-(4-nitrophenyl)-5-((2-isopropyl-5-methylphenoxy)methyl)-1,2,4-oxadiazole at diverse concentrations ranging from 0.01 μM to 100 μM for 72 h. Then, cells were fixed at 4° C. for one hour with 150 μL of 10% trichloroacetic acid (TCA). […] Then, 150 μL of Tris pH 10.5 (10 mM) was added, and the absorbance was measured at 540 nm using a BMG LABTECH®-FLUOstar Omega microplate reader (Ortenberg, Germany). Half maximal inhibitory concentrations (IC50) values were calculated for each experiment using GraphPad Prism 6 software. […]
(§4) The inhibition was calculated using the following equation: Inhibition %=100−Average Viability

Data set [3] concerns human prostate cancer cells (PC3). Description: Cytotoxicity by SRB assay. The following applies: 0.01 μM to 100 μM for 72 h. Format: cell-based.
Text: as §2, §3, §4

Setting [4] is: A = concentration of comp. = 10,000 μL.
The mark [5] stands for this setting: B = concentration of comp. = 30,000 μL.
[6] abbreviates: C = concentration of comp. = 50,000 μL.
Setting [7] is: A = concentration of comp. = 10 mg/mL.
[8] abbreviates: A = concentration of comp. = 10,000 μg/mL.

For `Cc1ccc(C(C)C)c(OCc2nc(-c3ccc([N+](=O)[O-])cc3)no2)c1` [Compound 3, 3-(4-nitrophenyl)-5-((2-isopropyl-5-methylphenoxy)methyl)-1,2,4-oxadiazole], the melting point was 172 to 173 °C. This compound also gave an inhibition zone in the data set with Pseudomonas aeruginosa (setting [4]) of 26 mm. Further, in the data set with Pseudomonas aeruginosa (setting [5]), the inhibition zone was found to be 27 mm. Moreover, the inhibition zone in the data set with Pseudomonas aeruginosa (setting [6]) is reported as 43 mm. In the data set with Escherichia coli (setting [4]), the inhibition zone worked out at 27 mm. The inhibition zone in the data set on Escherichia coli (setting [5]) came to 36 mm. Also, the inhibition zone with Escherichia coli (setting [6]) was 50 mm. Besides, the inhibition zone with Staphylococcus aureus (setting [7]) is recorded as 18 mm. The compound also yielded an inhibition zone in the data set with Staphylococcus aureus (setting [5]) of 23 mm. The same compound returned an inhibition zone in the data set on Staphylococcus aureus (setting [6]) of 35 mm. Further, the inhibition zone in the data set on Bacillus cereus (setting [8]) amounted to 22 mm. The inhibition zone with Bacillus cereus (setting [5]) is recorded as 25 mm. Besides, in the data set on Bacillus cereus (setting [6]), the inhibition zone came out at 38 mm. The compound also gave an inhibition zone in the data set with Aspergillus flavus (setting [4]) of 20 mm. In addition, in the data set with Aspergillus flavus (setting [5]), the inhibition zone was 23 mm. The compound also returned an inhibition zone with Aspergillus flavus (setting [6]) of 36 mm. Moreover, the inhibition zone in data set [1] (setting [4]) is on record as 28 mm. Moreover, the inhibition zone in data set [1] (setting [5]) turned out to be 30 mm. In data set [1] (setting [6]), the inhibition zone was 49 mm. For the same compound, the “antimicrobial activity (in words)” value in the data set with different microbes is reported as “excellent antimicrobial activities”.
`O=C(O)c1cn(C2CC2)c2cc(N3CCNCC3)c(F)cc2c1=O` [Cip., ciprofloxacin, reference compound]: the inhibition zone in the data set with Pseudomonas aeruginosa (setting [4]) stood at 29 mm; in the data set on Pseudomonas aeruginosa (setting [5]), 30 mm; in the data set on Pseudomonas aeruginosa (setting [6]) it was 53 mm; with Escherichia coli (setting [4]), 30 mm; in the data set with Escherichia coli (setting [5]), 39 mm; in the data set on Escherichia coli (setting [6]), 60 mm. The inhibition zone in the data set on Staphylococcus aureus (setting [7]) came to 43 mm; with Staphylococcus aureus (setting [5]) it was 44 mm; in the data set on Staphylococcus aureus (setting [6]) it was 53 mm; in the data set on Bacillus cereus (setting [8]), 29 mm; with Bacillus cereus (setting [5]), 30 mm; in the data set on Bacillus cereus (setting [6]) it was 42 mm. The inhibition zone in the data set with Aspergillus flavus (setting [4]) amounted to 29 mm; with Aspergillus flavus (setting [5]) it was 30 mm; in the data set with Aspergillus flavus (setting [6]), 42 mm; in data set [1] (setting [4]), 29 mm; in data set [1] (setting [5]), 30 mm; in data set [1] (setting [6]), 53 mm.
On to `Cc1ccc(C(C)C)c(OCc2nc(-c3ccc([N+](=O)[O-])cc3)no2)c1` [3-(4-nitrophenyl)-5-((2-isopropyl-5-methylphenoxy)methyl)-1,2,4-oxadiazole], for which the “antiproliferative activity (in words)” value in [2] and in [3] was “excellent antiproliferative activities” throughout.

The record behind these values is patent US11958814B1, “3-(4-nitrophenyl)-5-((2-isopropyl-5-methylphenoxy)methyl)-1,2,4-oxadiazole as an anti-cancer and antimicrobial compound” (KING FAISAL UNIVERSITY, priority 2023, dated 2024).
